Data taken from US10478425B2, “5-phenylazaindole derivative having AMPK-activating activity” (Shionogi & Co., Ltd., priority 2016, dated 2019).

Molecular target: T1, Human AMPK α2β2γ1 (Homo sapiens, UniProt O43741+P54646)
T1 construct: The full length cDNAs of human AMPK β2 (NM_005399.3) and human AMPK α2 (NM_006252.3); The full length cDNAs of human AMPK β2 (NM_005399.3); the full length cDNA of human AMPK γ1 (NM_002733.3) had been inserted into pET28b(+); 6×His (N); made in house; host or cells: Escherichia coli BL21 CodonPlus (DE3)-RIL
T1 sequence (P54646 whole entry): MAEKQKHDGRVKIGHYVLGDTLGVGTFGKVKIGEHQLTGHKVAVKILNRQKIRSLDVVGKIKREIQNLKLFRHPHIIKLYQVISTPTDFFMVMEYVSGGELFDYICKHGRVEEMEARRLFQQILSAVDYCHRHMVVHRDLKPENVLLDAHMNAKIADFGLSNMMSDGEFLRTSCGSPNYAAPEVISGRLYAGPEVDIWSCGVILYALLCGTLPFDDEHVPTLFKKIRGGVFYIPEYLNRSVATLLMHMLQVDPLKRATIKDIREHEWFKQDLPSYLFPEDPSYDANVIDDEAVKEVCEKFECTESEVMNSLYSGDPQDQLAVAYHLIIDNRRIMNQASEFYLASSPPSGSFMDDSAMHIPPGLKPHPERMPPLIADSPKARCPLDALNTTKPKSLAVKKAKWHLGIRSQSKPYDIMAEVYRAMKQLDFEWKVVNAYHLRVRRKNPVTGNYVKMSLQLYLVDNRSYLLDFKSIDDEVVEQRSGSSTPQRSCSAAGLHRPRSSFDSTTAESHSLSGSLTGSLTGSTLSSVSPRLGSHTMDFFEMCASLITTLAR
T1 sequence (O43741 whole entry): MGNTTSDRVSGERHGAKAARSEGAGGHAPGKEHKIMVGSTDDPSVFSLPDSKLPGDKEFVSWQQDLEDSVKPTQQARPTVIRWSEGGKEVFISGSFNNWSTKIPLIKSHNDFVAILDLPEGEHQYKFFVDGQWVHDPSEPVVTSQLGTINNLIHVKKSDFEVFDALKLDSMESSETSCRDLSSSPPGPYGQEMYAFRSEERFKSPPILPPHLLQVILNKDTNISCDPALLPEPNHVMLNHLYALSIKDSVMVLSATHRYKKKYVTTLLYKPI
T1 sequence (P54619 whole entry partner): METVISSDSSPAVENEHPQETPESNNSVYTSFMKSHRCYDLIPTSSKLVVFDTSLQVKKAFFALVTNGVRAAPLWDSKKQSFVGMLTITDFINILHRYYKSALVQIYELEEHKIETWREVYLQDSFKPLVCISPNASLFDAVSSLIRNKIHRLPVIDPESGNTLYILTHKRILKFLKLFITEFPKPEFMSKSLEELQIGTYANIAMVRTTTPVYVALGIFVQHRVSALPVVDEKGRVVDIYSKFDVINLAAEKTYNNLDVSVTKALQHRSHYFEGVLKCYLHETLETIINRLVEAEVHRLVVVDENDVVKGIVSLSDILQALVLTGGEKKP
Assay: Test Example 2: activation of phosphorylated human AMPK α2β2γ1 (mobility-shift kinase assay, FL-Peptide 7)
Type: biochemical
Settings: for EC150: compound concentration showing 150% relative to the control (100%), human AMPK α2β2γ1 phosphorylated with CaMKK2; for Emax: maximum rate of increase in activity within the measurement range, control = 100%, read-out: Emax
Summary of the method: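 His-tagged α2β2γ1 expressed in E. coli was pre-phosphorylated by GST-CaMKKβ (25 °C, 1–1.5 h), then exposed to compound for 10 min (1% DMSO). Reaction: pH 7.0 HEPES, ATP and 1.5 μM FL-Peptide 7 (final), 2 h at 25 °C. Mobility-shift conversion gave % activity increase versus compound-free control.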

Structure (SMILES)	EC150 [nM]	Emax [%]
CO[C@@H]1[C@@H](CO)OC[C@H]1Oc1cc2nc(-c3ccc(-c4ccc(N=S(C)(C)=O)cc4)cc3)c(F)cc2[nH]1 [Compound I-2-38]	9.2	597
COCCOc1ccc(-c2ccc(-c3nc4cc(O[C@@H]5CO[C@H]6[C@@H]5OC[C@H]6O)[nH]c4cc3F)cc2)cn1 [Compound I-2-40]	16	384
O=C1OCCN1c1ccc(-c2ccc(-c3nc4cc(O[C@@H]5CO[C@H]6[C@@H]5OC[C@H]6O)[nH]c4cc3F)cc2)cc1 [Compound I-2-41]	0.8	634
CS(C)(=O)=Nc1ccc(-c2ccc(-c3nc4cc(O[C@@H]5CO[C@H](CO)[C@H]5F)[nH]c4cc3F)cc2)cc1 [Compound I-2-42]	2.6	647
CS(C)(=O)=Nc1ccc(-c2ccc(-c3nc4cc(O[C@@H]5CO[C@H](CO)C5(F)F)[nH]c4cc3F)cc2)cc1 [Compound I-2-43]	6.2	514
O=C(C1CCN(c2ccc(-c3nc4cc(O[C@@H]5CO[C@H]6[C@@H]5OC[C@H]6O)[nH]c4cc3F)cc2)CC1)N1CCCC1 [Compound I-2-44]	35	661
O[C@@H]1CO[C@H]2[C@@H]1OC[C@H]2Oc1cc2nc(-c3ccc(-c4ccc(Oc5ccncc5)cc4)cc3)c(F)cc2[nH]1 [Compound I-2-45]	5	613
CNS(C)(=O)=Nc1ccc(-c2ccc(-c3nc4cc(O[C@@H]5CO[C@H](CO)C5)[nH]c4cc3F)cc2)cc1 (stereo partly drawn) [Compound I-2-46]	2.8	699
CNC(=O)COc1ccc(-c2ccc(-c3nc4cc(O[C@@H]5CO[C@H]6[C@@H]5OC[C@H]6O)[nH]c4cc3F)cc2)cc1 [Compound I-2-47]	2.2	635
COCCOCCOc1ccc(-c2ccc(-c3nc4cc(O[C@@H]5CO[C@H]6[C@@H]5OC[C@H]6O)[nH]c4cc3F)cc2)cc1 [Compound I-2-48]	1.1	635
O=C(c1ccc(-c2ccc(-c3nc4cc(O[C@@H]5CO[C@H](CO)C5)[nH]c4cc3F)cc2)cc1)N1CCCC1 [Compound I-2-49]	0.88	684
COC(=O)N1CCC(Oc2ccc(-c3ccc(-c4nc5cc(O[C@@H]6CO[C@H]7[C@@H]6OC[C@H]7O)[nH]c5cc4F)cc3)cc2)C1 (stereo partly drawn) [Compound I-2-51]	9.7	590
COCCOc1ccc(-c2ccc(-c3nc4cc(O[C@@H]5CO[C@H]6[C@@H]5OC[C@H]6O)[nH]c4cc3F)cc2)nc1 [Compound I-2-52]	7.2	532
CN1CCN(c2ccc(-c3ccc(-c4nc5cc(O[C@@H]6CO[C@H]7[C@@H]6OC[C@H]7O)[nH]c5cc4F)cc3)cc2)C1=O [Compound I-2-53]	4.2	638
CNC(=O)CCOc1ccc(-c2ccc(-c3nc4cc(O[C@@H]5CO[C@H]6[C@@H]5OC[C@H]6O)[nH]c4cc3F)cc2)cc1 [Compound I-2-54]	1.7	633
CCO[C@H]1[C@@H](CO)OC[C@H]1Oc1cc2nc(-c3ccc(-c4ccc(N=S(C)(C)=O)cc4)cc3)c(F)cc2[nH]1 [Compound I-2-55]	19	507
CP(C)(=O)c1ccc(-c2ccc(-c3nc4cc(O[C@@H]5CO[C@H]6[C@@H]5OC[C@H]6O)[nH]c4cc3F)cc2)cc1 [Compound I-2-56]	1.6	618
O[C@@H]1CO[C@H]2[C@@H]1OC[C@H]2Oc1cc2nc(-c3ccc(N4CCC(OC5CCNC5)CC4)cc3)c(F)cc2[nH]1 (stereo partly drawn) [Compound I-2-57]	26	601
COCCCN1CCN(c2ccc(-c3nc4cc(O[C@@H]5CO[C@H]6[C@@H]5OC[C@H]6O)[nH]c4cc3F)cc2)CC1 [Compound I-2-58]	56	514
COCCOc1ccc(-c2ccc(-c3nc4cc(O[C@@H]5CO[C@H]6[C@@H]5OC[C@H]6O)[nH]c4cc3F)cc2)cc1F [Compound I-2-59]	40	458
O[C@@H]1CO[C@H]2[C@@H]1OC[C@H]2Oc1cc2nc(-c3ccc(-c4ccc(OC5CCNCC5)cc4)cc3)c(F)cc2[nH]1 [Compound I-2-60]	2	564
CCOCCOc1ccc(-c2ccc(-c3nc4cc(O[C@@H]5CO[C@H]6[C@@H]5OC[C@H]6O)[nH]c4cc3F)cc2)cc1 [Compound I-2-61]	5.1	562
O[C@@H]1CO[C@H]2[C@@H]1OC[C@H]2Oc1cc2nc(-c3ccc(N4CCC(OC5CCNCC5)CC4)cc3)c(F)cc2[nH]1 [Compound I-2-62]	47	514

Structure (SMILES)	EC150 [nM]	Emax [%]
O[C@@H]1CO[C@H]2[C@@H]1OC[C@H]2Oc1cc2nc(-c3ccc(-c4ccc(OCCC(F)F)cc4)cc3)c(F)cc2[nH]1 [Compound I-2-63]	21	520
O[C@@H]1CO[C@H]2[C@@H]1OC[C@H]2Oc1cc2nc(-c3ccc(C#CC4CCNCC4)cc3)c(F)cc2[nH]1 [Compound I-2-64]	16	536
CP(C)(=O)c1ccc(-c2ccc(-c3nc4cc(O[C@@H]5CO[C@H](CO)C5)[nH]c4cc3F)cc2)cc1 [Compound I-2-65]	0.6	673
OCC1(c2ccc(-c3nc4cc(O[C@@H]5CO[C@H]6[C@@H]5OC[C@H]6O)[nH]c4cc3F)cc2)CC1 [Compound I-2-66]	1.1	580
CC(C)(C)P(=O)(c1ccc(-c2ccc(-c3nc4cc(O[C@@H]5CO[C@H]6[C@@H]5OC[C@H]6O)[nH]c4cc3F)cc2)cc1)C(C)(C)C [Compound I-2-67]	22	555
O[C@@H]1CO[C@H]2[C@@H]1OC[C@H]2Oc1cc2nc(-c3ccc(-c4ccc(OC5CCOC5)cc4)cc3)c(F)cc2[nH]1 (stereo partly drawn) [Compound I-2-69]	13	557
CCP(=O)(CC)c1ccc(-c2ccc(-c3nc4cc(O[C@@H]5CO[C@H]6[C@@H]5OC[C@H]6O)[nH]c4cc3F)cc2)cc1 [Compound I-2-72]	2.7	591
CS(C)(=O)=NC1CC=C(c2ccc(-c3nc4cc(O[C@@H]5CO[C@H](CO)C5)[nH]c4cc3F)cc2)CC1 (stereo partly drawn) [Compound I-2-73]	4.2	681
COCC(=O)Nc1ccc(-c2ccc(-c3nc4cc(O[C@@H]5CO[C@H](CO)C5)[nH]c4cc3F)cc2)cc1 [Compound I-2-74]	1.2	656
COCCOc1cc(F)c(-c2ccc(-c3nc4cc(O[C@@H]5CO[C@H]6[C@@H]5OC[C@H]6O)[nH]c4cc3F)cc2)c(F)c1 [Compound I-2-76]	20	490
CCP(=O)(CC)c1ccc(-c2ccc(-c3nc4cc(O[C@@H]5CO[C@H](CO)C5)[nH]c4cc3F)cc2)cc1 [Compound I-2-78]	1.5	573
CS(=O)(=O)c1ccc(-c2ccc(-c3nc4cc(O[C@@H]5CO[C@H](CO)C5)[nH]c4cc3F)cc2)cc1 [Compound I-2-79]	0.69	591
OC[C@@H]1C[C@H](Oc2cc3nc(-c4ccc(C5(CO)CC5)cc4)c(F)cc3[nH]2)CO1 [Compound I-2-80]	2	558
O=C(c1ccc(-c2ccc(-c3nc4cc(O[C@@H]5CO[C@H](CO)C5)[nH]c4cc3F)cc2)cc1)N1CCOCC1 [Compound I-2-81]	0.78	591
COCCNC(=O)c1ccc(-c2ccc(-c3nc4cc(O[C@@H]5CO[C@H](CO)C5)[nH]c4cc3F)cc2)cc1 [Compound I-2-82]	0.5	591
COCCN(C)C(=O)c1ccc(-c2ccc(-c3nc4cc(O[C@@H]5CO[C@H](CO)C5)[nH]c4cc3F)cc2)cc1 [Compound I-2-83]	0.73	581
O[C@@H]1CO[C@H]2[C@@H]1OC[C@H]2Oc1cc2nc(-c3ccc(-c4ccc(O[C@H]5CCOC5)cc4)cc3)c(F)cc2[nH]1 [Compound I-2-85]	1.5	500
CONC(=O)c1ccc(-c2ccc(-c3nc4cc(O[C@@H]5CO[C@H](CO)C5)[nH]c4cc3F)cc2)cc1 [Compound I-2-86]	0.53	592
CNC(=O)c1ccc(-c2ccc(-c3nc4cc(O[C@@H]5CO[C@H](CO)C5)[nH]c4cc3F)cc2)cc1 [Compound I-2-88]	0.62	683
CP(C)(=O)c1ccc(-c2ccc(-c3nc4cc(O[C@@H]5CO[C@H](CO)C5(F)F)[nH]c4cc3F)cc2)cc1 [Compound I-2-89]	0.94	556
OC[C@H]1OC[C@@H](Oc2cc3nc(-c4ccc(C5(CO)CC5)cc4)c(F)cc3[nH]2)C1(F)F [Compound I-2-90]	1.9	406
CC(=O)NC1CC=C(c2ccc(-c3nc4cc(O[C@@H]5CO[C@H](CO)C5)[nH]c4cc3F)cc2)CC1 (stereo partly drawn) [Compound I-2-92]	0.87	702
